{"source": "patent US11950596B2", "about": "“Methods of protecting seeds from oxidants and microorganisms” (The United States of America, as represented by the …, priority 2020, dated 2024)", "test_system": "A. flavus 3357", "test": "Heat-sensitizing antimicrobial bioassay (MFC) in A. flavus 3357", "type": "cell-based, Aspergillus flavus", "conditions": "for MFC: read-out: minimum fungicidal concentration (MFC; >99.999% fungal death)", "description": "Antimicrobial bioassay: The heat-sensitizing effect of twenty-eight compounds (phenolic derivatives, alkyl gallates, other food additives) (0.025, 0.050, 0.075, 0.100, 0.200, 0.300, 0.400, 0.500, 0.600 or 0.700 mM) and six drugs/fungicides (1, 2, 4, 8, 16, 32, 64 ppm) (Table 2) were examined using A. flavus 3357. Two hundred μL of fungal spores (1.5×10^5 to 2.1×10^5 CFU) dispersed in PBS was transferred into individual microfuge tube (1.5 mL vol.), where (1) “control” tube contained DMSO only, while (2) “treatment” tube contained test chemical/drug at respective concentration. The tubes were then treated with mild heat (57.5° C.) or maintained at room temperature (RT; 22.0° C.) for 90 seconds. After treatments, entire volume (200 μL) from each microfuge tube was spread onto fresh recovery PDA, and plates were incubated at respective temperatures. Fungal growth/survival was monitored after 48 hrs of incubation.\nAs described in A. flavus 3357 test (see above), microfuge tubes were treated with mild heat (57.5° C.) or maintained at RT (22.0° C.) (90 seconds). After heat treatments, entire volume (200 μL) from each microfuge tube was spread onto fresh recovery LB agar (for bacteria) or PDA (for fungi), and plates were incubated at the optimum temperature for respective microorganisms (i.e., 35° C. for Aspergillus, 37° C. for E. coli, 28° C. for Penicillium/A. tumefaciens, respectively). The growth/survival of test microorganisms were monitored after 48 to 72 hrs of incubation.\nDetermination of optimum temperature and time duration for screening heat sensitizers in A. flavus 3357: For the determination of the optimum temperature and time points for screening heat sensitizers, fungal (A. flavus 3357) survivability was tested by exposing fungal spores (1.5×10^5 to 2.1×10^5 CFU) to different temperatures (50, 55, 57.5, 60, 65° C.) and time points (0.5, 1.0, 1.5, 2.0, 2.5, 3.0, 3.5, 4.0, 4.5, 5.0 min).", "key": {"[1]": {"conditions": "Aspergillus flavus, 3357, 0.025 h, 22.0° C. (RT), 90 seconds, PBS"}, "[2]": {"conditions": "Aspergillus flavus, 3357, 0.025 h, 57.5° C. mild heat, 90 seconds, PBS"}, "[3]": {"conditions": "57.5° C. mild heat, 90 seconds, PBS"}}, "note": "Where two headings read alike, the source gives them in different places. Marks after values point to notes of the source that are not given here.", "data": [{"smiles": "O=Cc1cccc(O)c1O", "note": "[2,3-Dihydroxybenzaldehyde]", "values": [{"measurement": "MFC", "setting": "[1]", "result": "> 700", "unit": "µM"}, {"measurement": "MFC", "setting": "[2]", "result": "> 700", "unit": "µM"}]}, {"smiles": "O=C(O)c1ccc(O)cc1O", "note": "[2,4-Dihydroxybenzoic acid]", "values": [{"measurement": "MFC", "setting": "[1]", "result": "> 700", "unit": "µM"}, {"measurement": "MFC", "setting": "[2]", "result": "> 700", "unit": "µM"}]}, {"smiles": "COc1ccc(C=O)c(O)c1", "note": "[2-Hydroxy-4-methoxybenzaldehyde]", "values": [{"measurement": "MFC", "setting": "[1]", "result": "> 700", "unit": "µM"}, {"measurement": "MFC", "setting": "[2]", "result": "> 700", "unit": "µM"}]}, {"smiles": "Cc1ccc(C=O)c(O)c1", "note": "[2-Hydroxy-4-methylbenzaldehyde]", "values": [{"measurement": "MFC", "setting": "[1]", "result": "> 700", "unit": "µM"}, {"measurement": "MFC", "setting": "[2]", "result": "> 700", "unit": "µM"}]}, {"smiles": "O=C(O)c1ccc(O)c(O)c1", "note": "[3,4-Dihydroxybenzoic acid]", "values": [{"measurement": "MFC", "setting": "[3]", "result": ">700", "unit": "µM"}, {"measurement": "MFC", "setting": "[1]", "result": "> 700", "unit": "µM"}]}, {"smiles": "O=Cc1ccccc1", "note": "[Benzaldehyde]", "values": [{"measurement": "MFC", "setting": "[3]", "result": ">700", "unit": "µM"}, {"measurement": "MFC", "setting": "[1]", "result": "> 700", "unit": "µM"}]}, {"smiles": "O=C(O)c1ccccc1", "note": "[Benzoic acid]", "values": [{"measurement": "MFC", "setting": "[3]", "result": ">700", "unit": "µM"}, {"measurement": "MFC", "setting": "[1]", "result": "> 700", "unit": "µM"}]}, {"smiles": "CCCCOC(=O)c1cc(O)c(O)c(O)c1", "note": "[Butyl gallate]", "values": [{"measurement": "MFC", "setting": "[1]", "result": "> 700", "unit": "µM"}, {"measurement": "MFC", "setting": "[2]", "result": "> 700", "unit": "µM"}]}, {"smiles": "Cc1ccc(C(C)C)cc1O", "note": "[Carvacrol]", "values": [{"measurement": "MFC", "setting": "[3]", "result": ">700", "unit": "µM"}, {"measurement": "MFC", "setting": "[1]", "result": "> 700", "unit": "µM"}]}, {"smiles": "CC[C@H](C)C[C@H](C)CCCCCCCCC(=O)N[C@H]1C[C@@H](O)[C@@H](NCCN)NC(=O)[C@@H]2[C@@H](O)CCN2C(=O)[C@H]([C@H](O)CCN)NC(=O)[C@H]([C@H](O)[C@@H](O)c2ccc(O)cc2)NC(=O)[C@@H]2C[C@@H](O)CN2C(=O)[C@H]([C@@H](C)O)NC1=O", "note": "[Caspofungin]", "values": [{"measurement": "minimum fungicidal concentration (MFC; >99.999% fungal death)", "setting": "22.0° C. (RT), 90 seconds, PBS", "result": ">64 μg/mL; ppm"}, {"measurement": "minimum fungicidal concentration (MFC; >99.999% fungal death)", "setting": "[3]", "result": ">64 μg/mL; ppm"}]}, {"smiles": "O=CC=Cc1ccccc1", "note": "[Cinnamaldehyde]", "values": [{"measurement": "MFC", "setting": "[3]", "result": ">700", "unit": "µM"}, {"measurement": "MFC", "setting": "[1]", "result": "> 700", "unit": "µM"}]}, {"smiles": "O=C(O)C=Cc1ccccc1", "note": "[Cinnamic acid]", "values": [{"measurement": "MFC", "setting": "[1]", "result": "> 700", "unit": "µM"}, {"measurement": "MFC", "setting": "[2]", "result": "> 700", "unit": "µM"}]}, {"smiles": "Cc1cc(C2CC2)nc(Nc2ccccc2)n1", "note": "[Cyprodinil]", "values": [{"measurement": "minimum fungicidal concentration (MFC; >99.999% fungal death)", "setting": "22.0° C. (RT), 90 seconds, PBS", "result": ">64 μg/mL; ppm"}, {"measurement": "minimum fungicidal concentration (MFC; >99.999% fungal death)", "setting": "[3]", "result": ">64 μg/mL; ppm"}]}, {"smiles": "CCCCCCCCCCOC(=O)c1cc(O)c(O)c(O)c1", "note": "[Decyl gallate]", "values": [{"measurement": "MFC", "setting": "22.0° C. (RT), 90 seconds, PBS", "result": ">700", "unit": "µM"}, {"measurement": "minimum fungicidal concentration (MFC; >99.999% fungal death)", "setting": "[3]", "result": "200* μM"}, {"measurement": "MFC", "setting": "[1]", "result": "> 700", "unit": "µM"}, {"measurement": "MFC", "setting": "[2]", "result": 200, "unit": "µM"}]}, {"smiles": "CCOC(=O)c1cc(O)c(O)c(O)c1", "note": "[Ethyl gallate]", "values": [{"measurement": "MFC", "setting": "[1]", "result": "> 700", "unit": "µM"}, {"measurement": "MFC", "setting": "[2]", "result": "> 700", "unit": "µM"}]}, {"smiles": "N#Cc1c[nH]cc1-c1cccc2c1OC(F)(F)O2", "note": "[Fludioxonil]", "values": [{"measurement": "minimum fungicidal concentration (MFC; >99.999% fungal death)", "setting": "22.0° C. (RT), 90 seconds, PBS", "result": ">64 μg/mL; ppm"}, {"measurement": "minimum fungicidal concentration (MFC; >99.999% fungal death)", "setting": "[3]", "result": ">64 μg/mL; ppm"}]}, {"smiles": "O=C(O)c1cc(O)c(O)c(O)c1", "note": "[Gallate]", "values": [{"measurement": "MFC", "setting": "[1]", "result": "> 700", "unit": "µM"}, {"measurement": "MFC", "setting": "[2]", "result": "> 700", "unit": "µM"}]}, {"smiles": "COc1ccccc1O", "note": "[Guaiacol]", "values": [{"measurement": "MFC", "setting": "[1]", "result": "> 700", "unit": "µM"}, {"measurement": "MFC", "setting": "[2]", "result": "> 700", "unit": "µM"}]}, {"smiles": "OO", "note": "[Hydrogen peroxide]", "values": [{"measurement": "MFC", "setting": "[1]", "result": "> 700", "unit": "µM"}, {"measurement": "MFC", "setting": "[2]", "result": "> 700", "unit": "µM"}]}, {"smiles": "CCC(C)n1ncn(-c2ccc(N3CCN(c4ccc(OCC5COC(Cn6cncn6)(c6ccc(Cl)cc6Cl)O5)cc4)CC3)cc2)c1=O", "note": "(stereo not shown) [Itraconazole]", "values": [{"measurement": "minimum fungicidal concentration (MFC; >99.999% fungal death)", "setting": "22.0° C. (RT), 90 seconds, PBS", "result": "64 μg/mL; ppm"}, {"measurement": "minimum fungicidal concentration (MFC; >99.999% fungal death)", "setting": "[3]", "result": ">64 μg/mL; ppm"}]}, {"smiles": "COC(=O)c1cc(O)c(O)c(O)c1", "note": "[Methyl gallate]", "values": [{"measurement": "MFC", "setting": "[1]", "result": "> 700", "unit": "µM"}, {"measurement": "MFC", "setting": "[2]", "result": "> 700", "unit": "µM"}]}, {"smiles": "CCCCCCCCCOC(=O)c1cc(O)c(O)c(O)c1", "note": "[Nonyl gallate]", "values": [{"measurement": "MFC", "setting": "22.0° C. (RT), 90 seconds, PBS", "result": ">700", "unit": "µM"}, {"measurement": "minimum fungicidal concentration (MFC; >99.999% fungal death)", "setting": "[3]", "result": "400* μM"}, {"measurement": "MFC", "setting": "[1]", "result": "> 700", "unit": "µM"}, {"measurement": "MFC", "setting": "[2]", "result": 400, "unit": "µM"}]}, {"smiles": "CCCOC(=O)c1cc(O)c(O)c(O)c1", "note": "[Propyl gallate]", "values": [{"measurement": "MFC", "setting": "[1]", "result": "> 700", "unit": "µM"}, {"measurement": "MFC", "setting": "[2]", "result": "> 700", "unit": "µM"}]}, {"smiles": "COC(=O)N(OC)c1ccccc1COc1ccn(-c2ccc(Cl)cc2)n1", "note": "[Pyraclostrobin]", "values": [{"measurement": "minimum fungicidal concentration (MFC; >99.999% fungal death)", "setting": "22.0° C. (RT), 90 seconds, PBS", "result": ">64 μg/mL; ppm"}, {"measurement": "minimum fungicidal concentration (MFC; >99.999% fungal death)", "setting": "[3]", "result": ">64 μg/mL; ppm"}]}, {"smiles": "Cc1cc(C)nc(Nc2ccccc2)n1", "note": "[Pyrimethanil]", "values": [{"measurement": "minimum fungicidal concentration (MFC; >99.999% fungal death)", "setting": "22.0° C. (RT), 90 seconds, PBS", "result": ">64 μg/mL; ppm"}, {"measurement": "minimum fungicidal concentration (MFC; >99.999% fungal death)", "setting": "[3]", "result": ">64 μg/mL; ppm"}]}, {"smiles": "O=Cc1ccccc1O", "note": "[Salicylaldehyde]", "values": [{"measurement": "MFC", "setting": "[3]", "result": ">700", "unit": "µM"}, {"measurement": "MFC", "setting": "[1]", "result": "> 700", "unit": "µM"}]}, {"smiles": "O=C(O)c1ccccc1O", "note": "[Salicyllic acid]", "values": [{"measurement": "MFC", "setting": "Aspergillus flavus, 3357, 0.025 h", "result": "> 700", "unit": "µM"}]}, {"smiles": "CCCCCCCCCCCCOS(=O)(=O)[O-].[Na+]", "note": "[Sodium lauryl sulfate]", "values": [{"measurement": "MFC", "setting": "[1]", "result": "> 700", "unit": "µM"}, {"measurement": "MFC", "setting": "[2]", "result": "> 700", "unit": "µM"}]}, {"smiles": "Cc1ccc(C(C)C)c(O)c1", "note": "[Thymol]", "values": [{"measurement": "MFC", "setting": "[1]", "result": "> 700", "unit": "µM"}, {"measurement": "MFC", "setting": "[2]", "result": "> 700", "unit": "µM"}]}, {"smiles": "COc1cc(C(=O)O)ccc1O", "note": "[Vanillic acid]", "values": [{"measurement": "MFC", "setting": "[1]", "result": "> 700", "unit": "µM"}, {"measurement": "MFC", "setting": "[2]", "result": "> 700", "unit": "µM"}]}, {"smiles": "COc1cc(C=O)ccc1O", "note": "[Vanillin]", "values": [{"measurement": "MFC", "setting": "[1]", "result": "> 700", "unit": "µM"}, {"measurement": "MFC", "setting": "[2]", "result": "> 700", "unit": "µM"}]}, {"smiles": "COc1cc(CCC(C)=O)ccc1O", "note": "[Vanillylacetone]", "values": [{"measurement": "MFC", "setting": "[1]", "result": "> 700", "unit": "µM"}, {"measurement": "MFC", "setting": "[2]", "result": "> 700", "unit": "µM"}]}]}
